# Key:
# PA2652-LBD [1] = molecular target: T1, PA2652-LBD (Pseudomonas aeruginosa, UniProt Q9I0I6); assay type: binding, Pseudomonas aeruginosa PAO1; details: DSF screening as described in text; 2 °C threshold for significant hits
# T1 construct: The DNA fragment encoding the LBD of PA2652 (Lys^34–Thr^205) was amplified; His-tag (vector-encoded by pET28b(+) via NdeI site); made in house; host or cells: Escherichia coli BL21 (DE3)
# Excerpt: To identify ligands that may bind to the LBD of PA2652, we conducted Differential Scanning Fluorimetry (DSF) based high throughput ligand screening assays as described previously[37],[38]. DSF analyses permit the determination of melting temperature (Tm) values, which corresponds to the temperature at which half the protein is in its native conformation whereas the remaining half has undergone thermal unfolding. Since ligand binding typically enhances the thermal stability of proteins, increases in the Tm in the presence of ligands may be indicative of specific binding. We screened 450 different compounds available in five different ligand arrays from Biolog (Supplementary Fig. S3). The screened collection included different carbon and nitrogen sources, phosphorous and sulfurous compounds as well as different nutrient supplements.
# Thermal shift assays were performed on a MyIQ2 Real-Time PCR instrument (BioRad). Ligands from the different compound arrays (Biolog, Hayward, CA, USA; see Supplementary Fig. S3) were dissolved in 50 μl of MilliQ water, which, according to the manufacturer, corresponds to a concentration of 10–20 mM. Screening was performed using 96 wells plates. Each well contained 20 μM of protein dialyzed into TNG buffer (20 mM Tris/HCl, 150 mM NaCl, 10% (v/v) glycerol, pH 6.7), 2.5 μl of the resuspended compounds and SYPRO Orange (Life Technologies) at 5× concentration. In a single well (ligand free protein) the compound was substituted by water. Samples were heated from 23 °C to 85 °C at a scan rate of 1 °C/min. The protein unfolding curves were obtained by following the changes in SYPRO Orange fluorescence. Melting temperatures were determined using the first derivative values from the raw fluorescence data.
# PA2652-LBD [2] = molecular target: T1, PA2652-LBD; assay: ITC titration with L-malic acid in absence and presence of antagonists (competition); assay type: binding, Pseudomonas aeruginosa PAO1
# Excerpt: In order to understand the mechanistic role of these antagonistics in the chemotaxis behaviour of P. aeruginosa, we first carried out ITC binding studies. In these assays, we measured the affinity of L-malic acid for PA2652-LBD in the presence of different concentrations of citraconic and D,L-methylsuccinic acids. […] Considering the close structural similarity of antagonists and L-malic acid (Fig. 3) it is likely that these compounds compete for binding at the same site at PA2652.
# Figure 7 Attractants and antagonists compete for binding at PA2652-LBD in vitro. Isothermal titration calorimetry analysis of the binding of L-malic acid to PA2652-LBD in the absence and presence of 2 or 20 mM of the antagonists, citraconic and D,L-methylsuccinic acids. Upper panel: Titration raw data for the injection of 9.6 μl aliquots of 1 mM of L-malic acid into 20 μM of protein in the absence and presence of antagonists (present both in the injector syringe and sample cell). Lower panel: Integrated, dilution heat corrected and concentration normalized peak areas fitted with the “One binding site” model of ORIGIN. The apparent binding constants are listed in Supplementary Table S2.
# Experiments were conducted on a VP-microcalorimeter (Microcal, Amherst, MA, USA) at 20 °C. PA2652-LBD was dialyzed overnight against TNG buffer, adjusted to a concentration of 20–35 μM and placed into the sample cell of the instrument. The protein was titrated by the injection of 9.6–14.4 μl aliquots of 1–20 mM ligand solutions that were prepared in TNG buffer (20 mM Tris/HCl, 150 mM NaCl, 10% (v/v) glycerol, pH 6.8) immediately before use. The mean enthalpies measured from the injection of ligands into buffer were subtracted from raw titration data prior to data analysis with the MicroCal version of ORIGIN. Data were fitted with the “One binding site model”.
# [3] = system: Pseudomonas aeruginosa PAO1 (wt and PA2652 mutant); assay: Growth experiments with ligands as sole carbon source; assay type: cell-based; details: M9 minimal medium, 10 mM carbon source
# Excerpt: To evaluate the physiological relevance of the ligands identified, we first addressed the question of whether they could support bacterial growth as sole carbon source. To this end, we conducted growth experiments of the wild type (wt) strain and a mutant defective in PA2652 in minimal medium supplemented with the different ligands as sole carbon sources.
# Bacterial strains used in this study are listed in Supplementary Table S3. Pseudomonas aeruginosa PAO1 and its derivative strains were routinely grown at 37 °C in Luria Broth (LB; 5 g yeast extract l^−1, 10 g Bacto tryptone l^−1 and 5 g NaCl l^−1) or M9 medium supplemented with 1 mM MgSO4, 6 mg l^−1 Fe-citrate, trace elements[81] and 15 mM glucose as carbon source. For growth experiments to assess the capacity of PA2652-LBD ligands to support growth a sole C-source, PAO1 cells were pre-cultured overnight in M9 medium supplemented with 10 mM glucose and washed twice with M9 medium salts, prior to the inoculation of M9 medium containing10 mM of the different carbon sources. When necessary, the pH of the medium was adjusted to 7.0 prior to inoculation. Bacterial growth over the time was monitored using Bioscreen Microbiological Growth Analyser (Oy Growth Curves Ab Ltd, Helsinki, Finland). Escherichia coli strains were grown at 37 °C in LB. Escherichia coli DH5α was used as a host for gene cloning. When appropriate, antibiotics were used at the following final concentrations (in µg ml^−1): kanamycin, 25 (E. coli strains) and 100 (Pseudomonas strains); tetracycline, 40.
# [4] = L-malic acid titration in presence of 2 mM D,L-methylsuccinic acid
# [5] = L-malic acid titration in presence of 2 mM citraconic acid
# [6] = L-malic acid titration in presence of 20 mM D,L-methylsuccinic acid
# [7] = L-malic acid titration in presence of 20 mM citraconic acid
# [8] = L-malic acid titration, no antagonist
# T1 sequence (Q9I0I6 34-205): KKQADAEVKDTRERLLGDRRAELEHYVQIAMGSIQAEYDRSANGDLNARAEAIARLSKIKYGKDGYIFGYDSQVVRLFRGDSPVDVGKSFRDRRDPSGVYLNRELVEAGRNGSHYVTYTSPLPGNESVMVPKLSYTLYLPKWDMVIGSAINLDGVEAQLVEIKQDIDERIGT
smiles,measurement,setting,value
O=C(O)C[C@H](O)C(=O)O [L-malic acid],Tm increases,PA2652-LBD [1],more than 2 °C
same,Kd,PA2652-LBD [2],23 ± 1 µM
same,n (apparent),PA2652-LBD [2]; [4],0.6 ± 0.1
same,∆H (apparent),PA2652-LBD [2]; [4],-6.7 ± 1 kcal/mol
same,n (apparent),PA2652-LBD [2]; [5],0.9 ± 0.2
same,∆H (apparent),PA2652-LBD [2]; [5],-5.1 ± 1 kcal/mol
same,n (apparent),PA2652-LBD [2]; [6],1.1 ± 0.9
same,∆H (apparent),PA2652-LBD [2]; [6],-2.6 ± 2 kcal/mol
same,n (apparent),PA2652-LBD [2]; [7],1.1 ± 1
same,∆H (apparent),PA2652-LBD [2]; [7],-3.3 ± 5 kcal/mol
same,n (apparent),PA2652-LBD [2]; [8],1 ± 0.1
same,∆H (apparent),PA2652-LBD [2]; [8],-4.1 ± 0.6 kcal/mol
same,Change of apparent affinity of L-malic acid,PA2652-LBD [2]; antagonists increased to 20 mM,further reduction in the apparent affinity
same,Change of apparent affinity of L-malic acid,"PA2652-LBD [2]; in the presence of 2 mM antagonists (citraconic or D,L-methylsuccinic acid)",decreased approximately by a factor of two
same,Ability to support bacterial growth as sole carbon source,[3],able to efficiently sustain growth
